In patent publication US20080262097A1, “Formulations” (priority 2005, published 2008):
Converted amounts (≈) assume the structure as drawn. Like-named read-outs stand apart in the source and are kept apart here.

What was measured:
S. aureus ATCC 29213 [1] = assay: MIC assay; type: cell-based, Staphylococcus aureus
Experimental: 1. Staphylococcus aureus—the principal staphylococcal test micro-organism used in these studies was Staphylococcus aureus ATCC 29213. This strain is the one recommended for QC/QA purposes in Minimum Inhibitory Concentration (MIC) assays by the US Clinical and Laboratory Standards Institute (formerly the NCCLS), an FDA-recognised body. […] The staphylococci and enterococci were cultured and maintained on Mueller-Hinton Medium (agar and broth) at pH 7.2; they were incubated aerobically at 37° C. for 24 hours. This is a standard international method for quantitatively assessing the antimicrobial activity of a compound in a liquid medium. The method used a 96-well microtitre plate, capable of holding about 200 μl of liquid per well. […] The culture media were as described above for the relevant test organisms. The wells were inoculated with a liquid suspension of freshly grown micro-organism and incubated under the conditions described above. After incubation, the microtitre plate was examined visually (with the aid of a light box) for cell pellets in and/or opaque wells, which would indicate microbial growth. The MIC value was recorded as the lowest concentration of test compound required to inhibit microbial growth, ie, the lowest concentration for which the liquid in the well remained clear. The assays were conducted in duplicate and included both negative (culture medium only) and positive (culture medium, diluting solvent and inoculum) controls.

S. aureus ATCC 29213 [2] = assay: Disc diffusion assay (DDA); type: cell-based, Staphylococcus aureus
Source text: 1. Staphylococcus aureus—the principal staphylococcal test micro-organism used in these studies was Staphylococcus aureus ATCC 29213. This strain is the one recommended for QC/QA purposes in Minimum Inhibitory Concentration (MIC) assays by the US Clinical and Laboratory Standards Institute (formerly the NCCLS), an FDA-recognised body. S. aureus ATCC 29213 is susceptible to beta-lactam antibiotics such as methicillin and to many other antibiotics in clinical use worldwide today. The staphylococci and enterococci were cultured and maintained on Mueller-Hinton Medium (agar and broth) at pH 7.2; they were incubated aerobically at 37° C. for 24 hours. A sterile paper disc was impregnated with a sample of the test compound and a minimum of 30 minutes allowed for the solvents to evaporate as far as possible. The disc was then placed on an agar plate onto which the test micro-organism had been inoculated. The plate was then incubated under the conditions described above, following which it was examined visually for signs of bacterial growth. If the test compound had antimicrobial activity, a circular zone of no growth would be obtained around the disc. The diameter of this zone of “inhibition” was measured using a ProtoCOL™ automated zone sizer (Synbiosis, Cambridge, UK). In general, a greater diameter and/or area of the zone of inhibition indicates a greater antimicrobial activity in the relevant test compound, although other factors such as test compound mobility through the agar gel may also influence the result. […] The exceptions were the thymoquinone assays, in which only 50 μg of the benzoquinone was used.

S. aureus ATCC 29213 [3] = assay: Synergy disc diffusion assay (SDDA); type: cell-based, Staphylococcus aureus; conditions: for SDDA area increase / SDDA increase: quinone + BP; for SDDA area increase: over larger single-compound zone; for SDDA increase: over larger single-compound zone diameter; for SDDA with BP: quinone combined with BP on one disc, 200 μg of each (thymoquinone 50 μg)
Source text: 1. Staphylococcus aureus—the principal staphylococcal test micro-organism used in these studies was Staphylococcus aureus ATCC 29213. This strain is the one recommended for QC/QA purposes in Minimum Inhibitory Concentration (MIC) assays by the US Clinical and Laboratory Standards Institute (formerly the NCCLS), an FDA-recognised body. S. aureus ATCC 29213 is susceptible to beta-lactam antibiotics such as methicillin and to many other antibiotics in clinical use worldwide today. The staphylococci and enterococci were cultured and maintained on Mueller-Hinton Medium (agar and broth) at pH 7.2; they were incubated aerobically at 37° C. for 24 hours. This is a variation on the DDA method, in which two compounds are tested together for their combined antimicrobial activity. It provides a qualitative indication as to whether the compounds are likely to interact synergistically. Two test compounds A and B were placed on a single paper disc and the above described DDA procedure repeated. An increase in diameter of the zone of inhibition, compared to the greater of the zone diameters for the two compounds individually, was taken to indicate potential antimicrobial synergy. […] The larger the increase in zone size, the greater the likelihood of a synergistic interaction between the two test compounds. Each of the quinones was then subjected, in combination with BP, to the SDDA assay described above. In each case, increases in zone diameter (mm) and area (%) were measured with respect to those observed for the compound showing the larger zone diameters during the previous disc diffusion assays on the individual compounds. […] The exceptions were the thymoquinone assays, in which only 50 μg of the benzoquinone was used.

P. acnes NCTC 737 [4] = assay: Synergy disc diffusion assay (SDDA); type: cell-based, Propionibacterium acnes; conditions: for SDDA area increase / SDDA increase: quinone + BP; for SDDA area increase: over larger single-compound zone; for SDDA increase: over larger single-compound zone diameter; for SDDA with BP: quinone combined with BP on one disc, 200 μg of each
Experimental: 2. Propionibacterium spp.—the principal propionibacterial strain used in these studies was Propionibacterium acnes NCTC 737.
The Propionibacterium spp organisms were cultured and maintained on Wilkins-Chalgren Anaerobe Medium (agar and broth) at pH 6.0; cultures were incubated anaerobically at 37° C. for 72 hours.
This is a variation on the DDA method, in which two compounds are tested together for their combined antimicrobial activity. It provides a qualitative indication as to whether the compounds are likely to interact synergistically.
Two test compounds A and B were placed on a single paper disc and the above described DDA procedure repeated.
Each of the quinones was then subjected, in combination with BP, to the SDDA assay described above.
For all (S)DDA assays, 200 μg of each compound was loaded onto each disc.

P. acnes NCTC 737 [5] = assay: Supplemented disc diffusion assay (DDA + salt or lipid); type: cell-based, Propionibacterium acnes; conditions: 200 μg per disc; for DDA + lipid: agar supplemented with lipid; for DDA + salt: agar supplemented with salt
Experimental: The Propionibacterium spp organisms were cultured and maintained on Wilkins-Chalgren Anaerobe Medium (agar and broth) at pH 6.0; cultures were incubated anaerobically at 37° C. for 72 hours. A sterile paper disc was impregnated with a sample of the test compound and a minimum of 30 minutes allowed for the solvents to evaporate as far as possible. The disc was then placed on an agar plate onto which the test micro-organism had been inoculated. The plate was then incubated under the conditions described above, following which it was examined visually for signs of bacterial growth. If the test compound had antimicrobial activity, a circular zone of no growth would be obtained around the disc. The diameter of this zone of “inhibition” was measured using a ProtoCOL™ automated zone sizer (Synbiosis, Cambridge, UK). In general, a greater diameter and/or area of the zone of inhibition indicates a greater antimicrobial activity in the relevant test compound, although other factors such as test compound mobility through the agar gel may also influence the result. Either the DDA or the SDDA tests may be carried out using an agar gel supplemented with blood, lipid and/or salt to simulate some of the major components present in human skin and to assess whether these substances might reduce the antimicrobial activity observed for the test compounds. Performance under these conditions can provide a more reliable indication of activity on topical application. […] MIC, MBC and DDA assays, as described above, were carried out using BP and a range of different benzoquinones and hydroquinones. Supplemented DDA assays, in the presence of salt and lipid, were also conducted.

[6] = S. aureus ATCC 29213, Table 1 (Example 1)
[7] = Table 1, zone diameter, 200 μg per disc (thymoquinone 50 μg)
[8] = S. aureus ATCC 29213, Table 5 (Example 5)
[9] = Table 6 (Example 5), zone diameter, 200 μg per disc
[10] = Staphylococcus aureus, ATCC29213, S. aureus ATCC 29213, Table 1 (Example 1), read-out: MIC

Compound | MIC (S. aureus ATCC 29213 [1]; [6]) [µg/mL] | DDA (S. aureus ATCC 29213 [2]; [7]) [mm] | SDDA area increase (S. aureus ATCC 29213 [3]) [%] | SDDA increase (S. aureus ATCC 29213 [3]) [mm] | SDDA with BP (S. aureus ATCC 29213 [3]) [mm] | SDDA area increase (P. acnes NCTC 737 [4]) [%] | SDDA increase (P. acnes NCTC 737 [4]) [mm] | SDDA with BP (P. acnes NCTC 737 [4]) [mm] | DDA + lipid (P. acnes NCTC 737 [5]) [mm] | DDA + salt (P. acnes NCTC 737 [5]) [mm] | MIC (S. aureus ATCC 29213 [1]; [8]) [µg/mL] | MIC (S. aureus ATCC 29213 [1]; Staphylococcus aureus, ATCC29213) [µg/mL] | DDA (S. aureus ATCC 29213 [2]; [9]) [mm] | MIC (S. aureus ATCC 29213 [1]; [10]) [µg/mL]
Cc1c(O)ccc(O)c1C [2,3-dimethyl-p-hydroquinone] | 7.8 (≈ 56.5 µM) | 33.41 | 52.39 | 7.83 | 41.25 | 113.68 | 10.63 | 33.65 | 13.75 | 14.38 |  |  |  | 
CCc1cc(O)ccc1O [2-ethyl-p-hydroquinone] | 7.8 (≈ 56.5 µM) | 21.06 | 105.49 | 9.13 | 30.19 | 84.28 | 8.23 | 31.25 | 0.0 | 9.38 |  |  |  | 
CC(C)(C)c1cc(O)ccc1O [TBHQ, t-butyl hydroquinone] |  | 41.77 | 169.30 | 26.77 | 68.54 | 211.51 | 18.55 | 42.80 | 10.37 | 19.48 | 7.8 (≈ 46.9 µM) | 7.8 (≈ 46.9 µM) | 46.79 | 
O=C(OOC(=O)c1ccccc1)c1ccccc1 [benzoyl peroxide] |  | 11.03 |  |  |  |  |  |  |  |  | 250 (≈ 1030 µM) |  | 9.61 | 250 (≈ 1030 µM)
O=C1C=CC(=O)C=C1 [p-benzoquinone] |  | 29.34 | 37.25 | 5.03 | 34.38 | 77.78 | 8.29 | 33.16 | 37.98 | 31.44 |  |  |  | 
Oc1ccc(O)cc1 [p-hydroquinone] | 62.5 (≈ 568 µM) | 18.94 | 210.15 | 14.42 | 33.36 | 87.01 | 8.91 | 33.16 | 0.0 | 0.0 |  |  |  | 
CC1=CC(=O)C(C(C)C)=CC1=O [thymoquinone, 2-iso-propyl-5-methyl-p-benzoquinone] |  | 15.64 | 120.91 | 7.60 | 23.24 | 79.46 | 9.33 | 36.79 | 49.01 | 46.49 |  |  |  | 7.8 (≈ 47.5 µM)
